Experimental data: ChEMBL document CHEMBL5390226, “Synthesis and Staphylococcus aureus biofilm inhibitory activity of indolenine-substituted pyrazole and pyrimido[1,2-b]indazole derivatives” (Bioorg Med Chem, 2023)
Values after ≈ are worked out from the molar mass of the structure shown. Active and inactive are the calls of the source. The rule behind the calls is not given here.

What was measured:
Staphylococcus aureus [1] = assay: Antibiofilm activity against methicillin-resistant Staphylococcus aureus ATCC 33591 assessed as biofilm eradication incubated for 24 hrs by crystal violet staining based analysis; assay type: functional
Staphylococcus aureus [2] = assay: Antibiofilm activity against methicillin-susceptible Staphylococcus aureus ATCC 29213 assessed as inhibition of biofilm formation incubated for 24 hrs by crystal violet staining based analysis; assay type: functional; settings: dose 1.56-100 µg/ml
Staphylococcus aureus [3] = assay: Antibiofilm activity against methicillin-susceptible Staphylococcus aureus ATCC 29213 assessed as biofilm eradication incubated for 24 hrs by crystal violet staining based analysis; assay type: functional
[4] = Cytotoxicity against human A549 cells assessed as inhibition of cell growth measured after 48 hrs by MTT assay; assay type: toxicity, cell-based
Staphylococcus aureus [5] = assay: Antibiofilm activity against methicillin-resistant Staphylococcus aureus ATCC 33591 assessed as inhibition of biofilm formation incubated for 24 hrs by crystal violet staining based analysis; assay type: functional; settings: dose 1.56-100 µg/ml
Staphylococcus aureus [6] = assay: Antibacterial activity against methicillin-susceptible Staphylococcus aureus ATCC 29213 assessed as bacterial growth inhibition incubated for 24 hrs by CLSI based microbroth dilution method; assay type: functional
Staphylococcus aureus [7] = assay: Antibacterial activity against methicillin-resistant Staphylococcus aureus ATCC 33591 assessed as bacterial growth inhibition incubated for 24 hrs by CLSI based microbroth dilution method; assay type: functional
Staphylococcus aureus [8] = assay: Antibacterial activity against methicillin-susceptible Staphylococcus aureus ATCC 29213 assessed as planktonic growth inhibition at 25 to 50 ug/mL incubated for 24 hrs; assay type: functional, organism-based; settings: dose 25-50 µg/ml
Staphylococcus aureus [9] = assay: Antibacterial activity against methicillin-resistant Staphylococcus aureus ATCC ATCC 33591 assessed as planktonic growth inhibition at 25 to 50 ug/mL incubated for 24 hrs; assay type: functional, organism-based; settings: dose 25-50 µg/ml
Staphylococcus aureus [10] = assay: Antibacterial activity against methicillin-resistant Staphylococcus aureus ATCC 33591 assessed as MBC to MIC ratio; assay type: functional
Staphylococcus aureus [11] = assay: Antibiofilm activity against methicillin-susceptible Staphylococcus aureus ATCC 29213 assessed as disruption of biofilm incubated for 24 hrs by crystal violet staining based inverted microscopic analysis; assay type: functional, organism-based; settings: dose 1.56-12.5 µg/ml
Staphylococcus aureus [12] = assay: Antibiofilm activity against methicillin-resistant Staphylococcus aureus ATCC 33591 assessed as disruption of biofilm incubated for 24 hrs by crystal violet staining based inverted microscopic analysis; assay type: functional, organism-based; settings: dose 1.56-12.5 µg/ml

SMILES | MBIC50 (Staphylococcus aureus [2]) | MBEC50 (Staphylococcus aureus [3]) [µg/mL] | MBIC50 (Staphylococcus aureus [5]) | further results
CC1(C)C(c2cnn(-c3ccc(C(=O)O)cc3)c2)=Nc2ccc(Cl)cc21 | 6.25 µg/mL | 12.5 |  | MBEC50 (Staphylococcus aureus [1]): 50 µg/mL; IC50 at 48 h [4]: > 100 µg/mL
CC1(C)C(c2cnn(-c3ccc(C(=O)NCc4ccc(F)cc4)cc3)c2)=Nc2ccc3ccccc3c21 | >100 µg/mL |  |  | 
COc1ccc2c(c1)C(C)(C)C(c1cnc3c4c(OC)cccc4nn3c1)=N2 | >100 µg/mL | >100 | 25 µg/mL | 
CC1(C)C(c2cnn(-c3ccc(C(=O)Nc4ccc(Cl)cc4)cc3)c2)=Nc2ccc3ccccc3c21 | >100 µg/mL |  |  | 
COc1ccc2c(c1)C(C)(C)C(c1cnn(-c3ccc(C(=O)O)cc3)c1)=N2 | 12.5 µg/mL | >100 | 100 µg/mL | 
CC1(C)C(c2cnn(-c3ccc(C(=O)NCc4ccc(F)cc4)cc3)c2)=Nc2ccccc21 | >100 µg/mL |  |  | 
Cc1ccc(NC(=O)c2ccc(-n3cc(C4=Nc5ccccc5C4(C)C)cn3)cc2)cc1 | >100 µg/mL |  |  | 
CC1(C)C(c2cnn(-c3ccccc3)c2)=Nc2ccc(C(=O)O)cc21 | 12.5 µg/mL | >100 | <=1.56 ug ml-1 | MBEC50 (Staphylococcus aureus [1]): 25 µg/mL; IC50 at 48 h [4]: > 100 µg/mL
Oc1cc(Cl)ccc1Oc1ccc(Cl)cc1Cl [TRICLOSAN] | <=1.56 ug ml-1 | 3.13 | <=1.56 ug ml-1 | MBEC50 (Staphylococcus aureus [1]): 6.25 µg/mL
N=C(NCCCCCCNC(=N)NC(=N)Nc1ccc(Cl)cc1)NC(=N)Nc1ccc(Cl)cc1 [CHLORHEXIDINE] | 3.13 µg/mL | 12.5 | <=1.56 ug ml-1 | MBEC50 (Staphylococcus aureus [1]): 3.13 µg/mL
CC1(C)C(c2cnc3c4ccccc4nn3c2)=Nc2c1ccc1ccccc21 | 25 µg/mL | >100 | 6.25 µg/mL | 
CC1(C)C(c2cnc3c4ccc(Br)cc4nn3c2)=Nc2ccc3ccccc3c21 | >100 µg/mL | >100 |  | 
CC1(C)C(c2cnn(-c3ccc(C(=O)NC4CCCCC4)cc3)c2)=Nc2ccccc21 | >100 µg/mL |  |  | 
CC1(C)C(c2cnc3c4ccc(Br)cc4nn3c2)=Nc2ccccc21 | >100 µg/mL | >100 | 100 µg/mL | 
Cc1ccc(CNC(=O)c2ccc(-n3cc(C4=Nc5ccccc5C4(C)C)cn3)cc2)cc1 | >100 µg/mL |  |  | 
Cc1ccccc1NC(=O)c1ccc(-n2cc(C3=Nc4ccccc4C3(C)C)cn2)cc1 | >100 µg/mL |  |  | 
CC1(C)C(c2cnn(-c3ccc(C(=O)NCCc4ccccc4)cc3)c2)=Nc2ccccc21 | >100 µg/mL |  |  | 
CC1(C)C(c2cnn(-c3ccc(C(=O)O)cc3)c2)=Nc2ccccc21 | 6.25 µg/mL | >100 | 50 µg/mL | 
CC1(C)C(c2cnn(-c3ccc(C(=O)NCCc4ccccc4)cc3)c2)=Nc2ccc3ccccc3c21 | >100 µg/mL |  |  | 
CCOC(=O)c1ccc2c(c1)C(C)(C)C(c1cnc3c4ccc(Br)cc4nn3c1)=N2 | >100 µg/mL | >100 |  | 
CC1(C)C(c2cnc3c4ccc(C(F)(F)F)cc4nn3c2)=Nc2ccc3ccccc3c21 | 50 µg/mL | >100 |  | 
CC1(C)C(c2cnn(-c3ccc(C(=O)Nc4ccncc4)cc3)c2)=Nc2ccccc21 | >100 µg/mL |  |  | 
CC1(C)C(c2cnc3c4ccccc4nn3c2)=Nc2ccc3ccccc3c21 | >100 µg/mL | >100 | 50 µg/mL | 
CC1(C)C(c2cnn(-c3ccc(C(=O)O)cc3)c2)=Nc2ccc3ccccc3c21 | <=1.56 ug ml-1 | 12.5 | 3.13 µg/mL | MBEC50 (Staphylococcus aureus [1]): 6.25 µg/mL; MIC (Staphylococcus aureus [6]): 25 µg/mL (≈ 65.5 µM); MIC (Staphylococcus aureus [7]): 25 µg/mL (≈ 65.5 µM); inhibition (Staphylococcus aureus [8]): Active; inhibition (Staphylococcus aureus [9]): Active; Ratio (Staphylococcus aureus [10]): >4; inhibition (Staphylococcus aureus [2]): Dose-Dependent Effect; inhibition (Staphylococcus aureus [5]): Dose-Dependent Effect; IC50 at 48 h [4]: > 100 µg/mL; Activity (Staphylococcus aureus [11]): Dose-Dependent Effect; Activity (Staphylococcus aureus [12]): Dose-Dependent Effect

SMILES | MBIC50 (Staphylococcus aureus [2]) | MBEC50 (Staphylococcus aureus [3]) [µg/mL] | MBIC50 (Staphylococcus aureus [5]) | further results
CC1(C)C(c2cnn(-c3ccc(C(=O)Nc4ccc(Cl)cc4)cc3)c2)=Nc2ccccc21 | >100 µg/mL |  |  | 
COc1ccc2c(c1)C(C)(C)C(c1cnc3c4ccc(C(F)(F)F)cc4nn3c1)=N2 | 100 µg/mL | >100 |  | MBEC50 (Staphylococcus aureus [1]): 100 µg/mL
CC1(C)C(c2cnc3c4ccccc4nn3c2)=Nc2ccccc21 | >100 µg/mL | 100 | 100 µg/mL | MBEC50 (Staphylococcus aureus [1]): >100 µg/mL
CCOC(=O)c1ccc2c(c1)C(C)(C)C(c1cnc3c4ccc(C(F)(F)F)cc4nn3c1)=N2 | 100 µg/mL | >100 |  | MBEC50 (Staphylococcus aureus [1]): 100 µg/mL
COc1cccc2nn3cc(C4=Nc5ccc6ccccc6c5C4(C)C)cnc3c12 | >100 µg/mL | >100 |  | MBEC50 (Staphylococcus aureus [1]): 100 µg/mL
CC1(C)C(c2cnn(-c3ccc(C(=O)Nc4ccccc4)cc3)c2)=Nc2ccccc21 | >100 µg/mL |  |  | 
COc1cccc2nn3cc(C4=Nc5ccccc5C4(C)C)cnc3c12 | 50 µg/mL | >100 | >100 µg/mL | 
CC1(C)C(c2cnn(-c3ccc(C(=O)Nc4ccc(F)cc4)cc3)c2)=Nc2ccccc21 | >100 µg/mL |  |  | 
COc1ccc(NC(=O)c2ccc(-n3cc(C4=Nc5ccccc5C4(C)C)cn3)cc2)cc1 | >100 µg/mL |  |  | 
CC1(C)C(c2cnc3c4ccc(C(F)(F)F)cc4nn3c2)=Nc2c1ccc1ccccc21 | >100 µg/mL | >100 | 100 µg/mL | 
CCOC(=O)c1ccc2c(c1)C(C)(C)C(c1cnc3c4ccccc4nn3c1)=N2 | >100 µg/mL | >100 | 100 µg/mL | 
CC1(C)C(c2cnc3c4ccc(Br)cc4nn3c2)=Nc2c1ccc1ccccc21 | >100 µg/mL | >100 | 50 µg/mL | 
CC1(C)C(c2cnn(-c3ccc(C(=O)NCc4cccnc4)cc3)c2)=Nc2ccccc21 | >100 µg/mL |  |  | 
CC1(C)C(c2cnn(-c3ccc(C(=O)NCc4ccccc4)cc3)c2)=Nc2ccccc21 | >100 µg/mL |  |  | 
CCCCNC(=O)c1ccc(-n2cc(C3=Nc4ccccc4C3(C)C)cn2)cc1 | >100 µg/mL |  |  | 
COc1ccc2c(c1)C(C)(C)C(c1cnc3c4ccccc4nn3c1)=N2 | >100 µg/mL | >100 | 50 µg/mL | 
CC1(C)C(c2cnn(-c3ccc(C(=O)Nc4ccncc4)cc3)c2)=Nc2ccc3ccccc3c21 | >100 µg/mL |  |  | 
COc1ccc2c(c1)C(C)(C)C(c1cnc3c4ccc(Br)cc4nn3c1)=N2 | >100 µg/mL | >100 |  | 
CC1(C)C(c2cnc3c4ccc(C(F)(F)F)cc4nn3c2)=Nc2ccccc21 | 100 µg/mL | >100 | 12.5 µg/mL | 
CCOC(=O)c1ccc2c(c1)C(C)(C)C(c1cnc3c4c(OC)cccc4nn3c1)=N2 | >100 µg/mL | >100 | 12.5 µg/mL | 
CN(C)c1ccccc1NC(=O)c1ccc(-n2cc(C3=Nc4ccccc4C3(C)C)cn2)cc1 | >100 µg/mL |  |  | 
COc1cccc2nn3cc(C4=Nc5c(ccc6ccccc56)C4(C)C)cnc3c12 | 12.5 µg/mL | >100 |  | 
CC1(C)C(c2cnn(-c3ccc(C(=O)Nc4ccc(F)cc4)cc3)c2)=Nc2ccc3ccccc3c21 | >100 µg/mL |  |  | 
